This note sets out measurements from patent publication EP0395099B1 (priority 1989, dated 1990).

The assay concerns Staphylococcus aureus strain FRI-1169. As to the kind of experiment: microbe, parasite or virus in culture. The assay is classed as cell-based. As to conditions: for inhibition at 0.1 % / inhibition at 0.5 % / inhibition at 1 % / inhibition at 10 %: Staphylococcus aureus; for inhibition at 0.1 %: FRI1169, read-out: Reduction in TSST-1 Formation, Example 11: test tampon comprising 0.1% fatty acid ester; for inhibition at 0.5 %: FRI1169, read-out: Reduction in TSST-1 Formation, Example 11: test tampon comprising 0.5% fatty acid ester; for inhibition at 10 %: FRI1169, read-out: Reduction in TSST-1 Formation, Example 11: test tampon comprising 10% fatty acid ester.

[1] abbreviates: Example 11: test tampon comprising 0.1% fatty acid ester.
The mark [2] stands for this setting: Example 11: test tampon comprising 0.5% fatty acid ester.
[3] abbreviates: Example 11: test tampon comprising 1.0% fatty acid ester.
The mark [4] stands for this setting: Example 11: test tampon comprising 10% fatty acid ester.
Setting [5] is: FRI1169, read-out: Reduction in TSST-1 Formation, Example 11: test tampon comprising 1.0% fatty acid ester.
[6] abbreviates: Example 8: test tampon comprising 1% by weight of the ester, 24 hours at 37°C.
[7] abbreviates: Example 8: test tampon comprising 1% by weight of the ester, 24 hours at 37°C, ELISA.
[8] abbreviates: FRI1169, read-out: REDUCTION IN TSST-1 FORMATION, Example 8: test tampon comprising 1% by weight of the ester, vs untreated control tampon.

The structures appear in SMILES notation. Where two headings read alike, the source gives them in different places.

As for `CCCCCCCCCCCC(=O)OCC(C)O` (stereo not drawn) [Tampon 1, 2-Hydroxy-1-propyl laurate], the inhibition at 0.1 % was ~7%, the inhibition at 0.5 % is 85% and the inhibition at 10 % was found to be 99%. Under setting [1], the “Log of Final Concn. of S. aureus” value is 9.1 /ml and the “Total Amount TSST-1 Produced” value is listed as 7.93 »g. Further, under setting [2], the “Log of Final Concn. of S. aureus” value is recorded as 7.64 /ml and the “Total Amount TSST-1 Produced” value is listed as 1.25 »g. Under setting [3], the “Log of Final Concn. of S. aureus” value is 8.79 /ml and the “Total Amount TSST-1 Produced” value is given as 0.09 »g. Also, under setting [4], the “Log of Final Concn. of S. aureus” value is 8.37 /ml and the “Total Amount TSST-1 Produced” value is reported as 0.05 »g. In addition, the inhibition at 1 % under setting [5] was ~99%.

Turning to `CCCCCCCCCCCC(=O)OCCOCCO` [Tampon 2, Diethylene glycol monolaurate], the inhibition at 0.1 % worked out at 99%, the inhibition at 0.5 % was 99% and the inhibition at 10 % is 99%. Moreover, under setting [1], the “Log of Final Concn. of S. aureus” value was 8.45 /ml and the “Total Amount TSST-1 Produced” value was 0.12 »g. Under setting [2], the “Log of Final Concn. of S. aureus” value is 7.40 /ml and the “Total Amount TSST-1 Produced” value is recorded as 0.01 »g. Besides, under setting [3], the “Log of Final Concn. of S. aureus” value is reported as 6.13 /ml and the “Total Amount TSST-1 Produced” value was 0.01 »g. Besides, under setting [4], the “Log of Final Concn. of S. aureus” value is 7.42 /ml and the “Total Amount TSST-1 Produced” value is 0.11 »g. Besides, the inhibition at 1 % under setting [5] was ~99%.

As to `CCCCCCCCCCCC(=O)OCC(O)CO` (stereo not drawn) [Tampon No. 2, Glyceryl monolaurate], the “FINAL CONCENTRATION OF S. AUREUS CELLS, log to the base 10” value under setting [6] is given as 6.81 /ml. For the same molecule, the “Total Amount TSST-1 Produced” value under setting [7] is recorded as 0.14 »g. For the same molecule, the inhibition at 1 % under setting [8] is 99.1%.

On to `CCCCCCCCCCCCCC(=O)OCC(O)CO` (stereo not drawn) [Tampon No. 3, Glyceryl monomyristate], for which, under setting [6], the “FINAL CONCENTRATION OF S. AUREUS CELLS, log to the base 10” value is on record as 8.70 /ml. Besides, the “Total Amount TSST-1 Produced” value under setting [7] was 0.58 »g. For the same molecule, under setting [8], the inhibition at 1 % worked out at 96.6%.

As to `CCCCCCCCCCCCCCCC(=O)OCC(O)CO` (stereo not drawn) [Tampon No. 4, Glyceryl monopalmitate], under setting [6], the “FINAL CONCENTRATION OF S. AUREUS CELLS, log to the base 10” value was 9.15 /ml. The “Total Amount TSST-1 Produced” value under setting [7] was 1.75 »g. The inhibition at 1 % under setting [8] came out at 89.7%.

For the molecule `CCCCCCCCCCCCCCCCCC(=O)OCC(O)CO` (stereo not drawn) [Tampon No. 5, Glyceryl monostearate], the “FINAL CONCENTRATION OF S. AUREUS CELLS, log to the base 10” value under setting [6] is 8.78 /ml. Besides, the “Total Amount TSST-1 Produced” value under setting [7] is on record as 6.43 »g. For the same molecule, the inhibition at 1 % under setting [8] stood at 60%.

For `CCCCCCCC/C=C\CCCCCCCC(=O)OCC(O)CO` (stereo not drawn) [Tampon No. 6, Glyceryl monooleate], under setting [6], the “FINAL CONCENTRATION OF S. AUREUS CELLS, log to the base 10” value was 8.83 /ml. Also, under setting [7], the “Total Amount TSST-1 Produced” value is 1.01 »g. Besides, the inhibition at 1 % under setting [8] stood at 94.1%.
